In ChEMBL document CHEMBL1151054, “Fungal metabolite of naftazone inhibits nitrite production by activated murine macrophages” (Bioorg Med Chem Lett, 1995):

Assays:
[1] = molecular target: T1, Nitric oxide synthase, inducible (Mus musculus, UniProt P29477); experiment: Compound was tested for inhibition of inducible Nitric oxide synthase in activated murine macrophages.
T1 sequence (P29477 whole entry): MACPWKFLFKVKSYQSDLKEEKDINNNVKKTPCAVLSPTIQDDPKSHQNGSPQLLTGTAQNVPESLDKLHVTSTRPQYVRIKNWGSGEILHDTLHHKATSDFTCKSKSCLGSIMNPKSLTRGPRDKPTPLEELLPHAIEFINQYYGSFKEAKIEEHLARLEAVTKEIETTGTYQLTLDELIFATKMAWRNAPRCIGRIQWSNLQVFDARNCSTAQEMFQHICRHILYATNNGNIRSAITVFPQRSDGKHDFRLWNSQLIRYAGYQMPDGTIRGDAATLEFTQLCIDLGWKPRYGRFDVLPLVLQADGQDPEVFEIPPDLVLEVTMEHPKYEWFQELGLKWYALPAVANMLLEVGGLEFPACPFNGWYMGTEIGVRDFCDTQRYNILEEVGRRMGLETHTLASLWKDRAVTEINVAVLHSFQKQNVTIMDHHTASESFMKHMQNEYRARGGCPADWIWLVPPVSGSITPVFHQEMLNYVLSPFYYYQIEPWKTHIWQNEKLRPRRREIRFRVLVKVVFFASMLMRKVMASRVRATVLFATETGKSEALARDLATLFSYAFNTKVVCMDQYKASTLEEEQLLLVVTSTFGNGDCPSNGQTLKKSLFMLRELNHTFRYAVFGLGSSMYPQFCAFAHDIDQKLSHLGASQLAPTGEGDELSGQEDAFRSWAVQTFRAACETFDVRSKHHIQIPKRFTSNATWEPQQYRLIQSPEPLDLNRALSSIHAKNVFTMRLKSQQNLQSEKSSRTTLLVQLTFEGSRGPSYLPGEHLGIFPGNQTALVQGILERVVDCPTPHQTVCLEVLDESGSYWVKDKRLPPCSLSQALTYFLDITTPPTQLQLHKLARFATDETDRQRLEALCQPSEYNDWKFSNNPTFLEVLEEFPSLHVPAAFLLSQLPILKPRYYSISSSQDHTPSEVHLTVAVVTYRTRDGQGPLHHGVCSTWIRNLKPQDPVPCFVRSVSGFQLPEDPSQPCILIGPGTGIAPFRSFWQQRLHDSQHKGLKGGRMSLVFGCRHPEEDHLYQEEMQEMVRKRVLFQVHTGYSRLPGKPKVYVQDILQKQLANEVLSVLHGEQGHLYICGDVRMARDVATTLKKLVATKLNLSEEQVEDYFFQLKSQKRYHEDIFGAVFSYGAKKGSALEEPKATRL

[2] = Compound was tested for inhibition of constitutive bovine brain Nitric oxide synthase; format: tissue-based

| IC50 [1] | IC50 [2] | SMILES |
| --- | --- | --- |
| 20 µM | 2.5 µM | O=[N+]([O-])c1ccc2cn[nH]c2c1 |
| 50 µM | – | O=c1nnc2ccc3c(c2[nH]1)=CCCC=3 |

| SMILES | IC50 [1] | IC50 [2] |
| --- | --- | --- |
| c1ccc(-n2ccnc2)cc1 | 8 µM | – |
